Assay [1] concerns the target T1, CD38 NAD+ hydrolase activity in NH7-dCas9 cells (Jurkat clone) (Homo sapiens, UniProt P28907).
T1 construct: The assay utilized CD38 expressing NH7-dCas9 cells (Jurkat clone); host or cells: NH7-dCas9 cells (Jurkat clone)
T1 sequence (P28907 1-300): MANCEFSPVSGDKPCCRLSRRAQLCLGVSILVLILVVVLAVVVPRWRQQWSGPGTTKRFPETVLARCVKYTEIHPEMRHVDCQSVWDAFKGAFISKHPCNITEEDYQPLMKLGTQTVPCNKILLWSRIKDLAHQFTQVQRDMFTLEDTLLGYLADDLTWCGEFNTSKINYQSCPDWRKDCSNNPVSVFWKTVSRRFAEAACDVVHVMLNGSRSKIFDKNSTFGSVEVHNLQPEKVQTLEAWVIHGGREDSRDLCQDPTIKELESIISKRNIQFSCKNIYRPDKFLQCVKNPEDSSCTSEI
Description: Fluorescence-based NAD+ hydrolase activity assay with human T cell line NH7-dCas9 cells-Jurkat clone (Assay 1). Conditions: read-out: Assay 1 Arithmetic mean IC50. The method, then:
For the modified assay, the performance validation criteria of the assay as a High Throughput Screening (HTS): Z-factor within the plate was greater than 0.89 (optimal HTS z-factor >0.5) and the Intra-plate, inter-plate and day to day variability (CV) was less than 20%.
NAD+ hydrolase activity of a human T cell line treated with test compounds was measured using a fluorescence-based assay. NH7-dCas9 cells (Jurkat clone) were provided by the Weissman Lab (UCSF 1700 4th St., Byers Hall, Room 403B, San Francisco, CA 94158-2330). Briefly, cells were centrifuged, resuspended in 44 μl PBS/10^6 cells and plated in a 96 well black plate (CORNING) at a density of 1×10^6 per well.
(§1) Each test compound was received in a powder state and dissolved in DMSO as a 25 mM stock solution. Each test compound was serially diluted in order to generate a dose-response curve. The dilution series of each test compound in DMSO was prepared at 50 times the concentrations to be assayed. Each test compound was diluted to generate a 5-fold dilution series of 8 concentrations from 20 μM to 0.256 nM in order to assay 8 final concentrations ranging from 400 nM to 25.6 pM. One μl of the 50× concentration compound series was added to each well of the plate containing 1×10^6 cells in PBS.
Each plate had the following intra plate controls: 3 wells containing cells treated with vehicle only (DMSO), 3 wells of cells treated with the reference compound 78c at a final concentration of 50 nM and 2 wells containing only PBS (used as a background value).
(§2) The reaction was started by adding nicotinamide 1,N^6-etheno-adenine dinucleotide (Sigma Aldrich) to reach a final concentration of 80 µM. The samples were excited at 321-15 nm, and the emission of fluorescence was measured at 410-20 nm at 37° C. every minute for 1 hr in a Clariostar® microplate reader (BMG LABTECH). NAD+ hydrolase activity was calculated as the slope of the linear portion of the fluorescence-time curve using the MARS data analysis software (BMG LABTECH). The data were uploaded in the Collaborative Drug Design (CDD) Software and for each compound the IC50 was calculated by the software. Each compound was tested in 3 independent experiments on 3 separate days to establish the reproducibility of the results. For each plate, the z-factor was also calculated as a plate quality using the CDD software.

For assay [2], the target named is T2, recombinant human CD38 Protein (Homo sapiens, UniProt P28907).
T2 construct: purchased R&D System
T2 sequence (P28907 1-300): T1 sequence (P28907 1-300)
Description: Fluorescence-based NAD+ cyclase activity assay with human recombinant CD38 protein (Assay 2). It is filed as biochemical. Particulars: read-out: Assay 2 Arithmetic mean IC50. On the procedure:
This protocol was modified from the de Oliveira et al., 2018 reference, supra.
NAD+ cyclase activity of the human recombinant CD38 protein treated with test compounds was measured using a fluorescence-based assay. Briefly, recombinant human CD38 Protein (R&D System) was resuspended in 44 μl/well of Sucrose-Tris Buffer (Sucrose 0.25 M, Tris pH 7.4 40 mM) and plated in a 96-well black plate (CORNING) at a density of 125 ng/well.
as §1, with “100” for “20”, “32” for “0.256”, “2 μM” for “400 nM”, “0.64 nM.” for “25.6 pM.”, “125 ng of protein” for “1×10^6 cells”, “Sucrose-Tris buffer.” for “PBS.”
The reaction was started adding nicotinamide guanine dinucleotide (NGD+) (Sigma Aldrich) to reach a final concentration of 150 µM. The samples were excited at 337-15 nm, and the emission of fluorescence was measured at 442-20 nm at 37° C. every minute for 1 hr in a Clariostar microplate reader (BMG LABTECH). NAD+ cyclase activity was calculated as the slope of the linear portion of the fluorescence-time curve using the MARS data analysis software (BMG LABTECH). The data were uploaded in the Collaborative Drug Design (CDD) Software, and for each compound the IC50 was calculated by the software. For each plate, the z-factor was also calculated as a plate quality using the CDD software.

Assay [3] addresses T2, recombinant human CD38 Protein. Description: Fluorescence-based NAD+ hydrolase activity assay with human recombinant CD38 protein (Assay 3). It is filed as biochemical. Conditions: read-out: Assay 3 Arithmetic mean IC50. The method, then: This protocol was modified from the following references (Muller et al. (1983); (Schultz et al. (2018); (Matalonga et al. (2017); and de Oliveira et al. (2018), supra.
NAD+ hydrolase activity of the human recombinant CD38 protein treated with test compounds was measured using a fluorescence-based assay. Briefly, recombinant human CD38 Protein (R&D System) was resuspended in 44 μl/well of Sucrose-Tris Buffer (Sucrose 0.25 M, Tris pH 7.4 40 mM) and plated in a 96-well black plate (CORNING) at a density of 10 ng/well.
Each test compound was received in a powder state and dissolved in DMSO as a 25 mM stock solution. Each test compound was serially diluted in order to generate a dose-response curve. The dilution series of each test compound in DMSO was prepared at 50× the concentrations to be assayed. Each test compound was diluted to generate a 5-fold dilution series of 8 concentrations from 20 μM to 0.256 nM in order to assay 8 final concentrations ranging from ranging from 400 nM to 25.6 pM. One μl of the 50× concentration compound series was added to each well of the plate containing 10 ng protein in Sucrose-Tris buffer.
as §2, with “started” for “started by”, “nm” for “nm,”, “Each compound was tested in 3 independent experiments on 3 separate days to establish the reproducibility of the results.” left out

The target of assay [4] is T3, recombinant mouse CD38 Protein (Mus musculus, UniProt P56528).
T3 construct: purchased R&D System
T3 sequence (P56528 1-304): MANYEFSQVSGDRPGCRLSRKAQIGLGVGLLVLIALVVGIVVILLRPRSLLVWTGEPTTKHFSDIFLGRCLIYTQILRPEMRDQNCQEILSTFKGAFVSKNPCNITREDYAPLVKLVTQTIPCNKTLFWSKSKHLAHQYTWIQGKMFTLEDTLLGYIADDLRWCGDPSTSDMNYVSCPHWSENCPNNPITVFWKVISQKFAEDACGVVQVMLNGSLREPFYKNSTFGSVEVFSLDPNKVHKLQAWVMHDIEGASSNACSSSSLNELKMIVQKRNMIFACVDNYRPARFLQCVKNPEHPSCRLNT
Description: Fluorescence-based NAD+ hydrolase activity assay with mouse recombinant CD38 protein (Assay 5). It is filed as biochemical. Conditions: read-out: Assay 5 Arithmetic mean IC50. The method, then: This protocol was modified from the following references: Muller et al. (1983); Schultz et al. (2018); Matalonga et al. (2017); and de Oliveira et al. (2018), supra.
NAD+ hydrolase activity of the mouse recombinant CD38 protein treated with test compounds was measured using a fluorescence-based assay. Briefly, recombinant mouse CD38 Protein (R&D System) was resuspended in 44 μl/well of Sucrose-Tris Buffer (Sucrose 0.25 M, Tris pH 7.4 40 mM) and plated in a 96 well black plate (CORNING) at a density of 2.5 ng/well.
Each test compound was received in a powder state and dissolved in DMSO as a 25 mM stock solution. Each test compound was serially diluted in order to generate a dose-response curve. The dilution series of each test compound in DMSO was prepared at 50 times the concentrations to be assayed. Each test compound was diluted to generate a 5-fold dilution series of 8 concentrations from 20 μM to 0.256 nM in order to assay 8 final concentrations ranging from 400 nM to 25.6 pM. One μl of the 50× concentration compound series was added to each well of the plate containing 2.5 ng of protein in Sucrose-Tris buffer.
Each plate had the following intra plate controls: 3 wells containing cells treated with vehicle only (DMSO), 3 wells of cells treated with the reference compounds 78c at a final concentration of 50 nM and 2 wells containing only Sucrose-Tris buffer (used as a background value).
as §2, with “started” for “started by”, “nm” for “nm,”, “Clariostar Microplate®” for “Clariostar® microplate”

The structures appear in SMILES notation.

A word on the IC50: it is the concentration that inhibits the measured activity by half. Take `Cc1cc(NC(=O)c2cccc(-n3ccnc3)n2)cc(C#N)n1` [Compound 4]: the IC50 in assay [1] is below 1 nM; in assay [2], 51 to 1000 nM; in assay [3] it was below 1 nM.
For the molecule `COCCNc1cc(NC(=O)c2cccc(-n3ccnc3)n2)ccn1` [Compound 10], the IC50 in assay [1] and in assay [3] was 1 to 50 nM each time.
Take `NC(=O)c1cc(NC(=O)c2cccc(-n3ccnc3)n2)ccn1` [Compound 17]: the IC50 in assay [1], in assay [3] and in assay [4] was 1 to 50 nM throughout.
Consider `CCN(C(C)=O)c1ccc(NC(=O)c2cccc(-n3ccnc3)n2)cn1` [Compound 19], for which the IC50 in assay [1], in assay [3] and in assay [4] was 1 to 50 nM throughout.
Regarding `O=C(O)c1ccc(NC(=O)c2cccc(-n3ccnc3)n2)cn1` [Compound 21], the IC50 in assay [1], in assay [3] and in assay [4] was 1 to 50 nM each time.
In the case of `CNC(=O)c1cc(NC(=O)c2cccc(-n3ccnc3)n2)ccn1` [Compound 23], the IC50 in assay [1] and in assay [3] was 1 to 50 nM each time.
As for `O=C(Nc1ccccn1)c1cccc(-n2ccnc2)n1` [Compound 25], the IC50 in assay [1] and in assay [3] was 51 to 1000 nM in each case.
As to `Cc1cncn1-c1cccc(C(=O)Nc2cccnc2)n1` [Compound 26], the half-inhibitory concentration (IC50) in assay [1], in assay [3] and in assay [4] was 51 to 1000 nM throughout.
Consider `Cc1cc(C(=O)Nc2ccncc2)nc(-c2cncn2C)c1` [Compound 44], for which the figures for the IC50 in assay [1], in assay [3] and in assay [4] were below 1 nM, 1 to 50 nM and 1 to 50 nM, respectively.
In the case of `O=C(Nc1ccc(C(F)(F)F)nc1)c1cccc(-c2cncs2)n1` [Compound 46], the IC50 in assay [3] fell in the range of 1 to 50 nM.
Consider `Cc1ccc(C(=O)Nc2cccnc2)nc1-n1ccnc1` [Compound 58, 6-(1H-imidazol-1-yl)-5-methyl-N-(pyridin-3-yl)picolinamide], for which the IC50 in assay [1] lay in the range of 51 to 1000 nM; in assay [3] it was 51 to 1000 nM; in assay [4], 1 to 50 nM.
Consider `COc1ccc(C(=O)Nc2cccnc2)nc1-n1ccnc1` [Compound 60], for which the IC50 is 51 to 1000 nM in assay [1], 51 to 1000 nM in assay [3] and 1 to 50 nM in assay [4].
Take `COc1ccc(-n2ccnc2)nc1C(=O)Nc1cccnc1` [Compound 63]: the 50% inhibitory concentration (IC50) in assay [1], in assay [3] and in assay [4] was 1 to 50 nM throughout.
For the molecule `Nc1ccc(-n2ccnc2)nc1C(=O)Nc1ccncc1` [Compound 64, 3-amino-6-(1H-imidazol-1-yl)-N-(pyridin-4-yl)picolinamide], the results for the IC50 in assay [1], in assay [3] and in assay [4] were below 1 nM, 1 to 50 nM and below 1 nM, respectively.
As to `Nc1ccc(-n2ccnc2)nc1C(=O)Nc1ccnc(F)c1` [Compound 65], the IC50 in assay [1], in assay [3] and in assay [4] was below 1 nM each time.
As for `Nc1ccc(-n2ccnc2)nc1C(=O)Nc1ccnc(C(F)(F)F)c1` [Compound 66], the IC50 in assay [1] is below 1 nM; in assay [3], 1 to 50 nM; in assay [4], below 1 nM.
Consider `CNc1cc(C(=O)Nc2cccnc2)nc(-n2ccnc2)c1` [Compound 68], for which the IC50 in assay [1] and in assay [3] was below 1 nM throughout.
`O=C(Nc1cccnc1)c1ccnc(-n2ccnc2)n1` [Compound 69]: the IC50 was below 1 nM in assay [1] and 1 to 50 nM in assay [3].

For the origin of these results see patent US12509451B2, “Heteroaryl amide inhibitors of CD38” (NAPA THERAPEUTICS LTD., priority 2020, dated 2025).
